Experimental data from PubChem BioAssay (NCI).
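Compound exposure: 48 hours, 5 concentrations, 96-well plates. At the GI50, growth is halved. Definition used: TGI = concentration required for complete inhibition of growth.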

Experiments:
Assay in all cases: DTP human tumour cell line panel, 48 h
EKVX NSCLC = system: EKVX NSCLC
HT29 colon = system: HT29 colon
IGROV1 ovarian = system: IGROV1 ovarian
RXF 393 renal = system: RXF 393 renal
SNB-75 CNS = system: SNB-75 CNS
SW-620 colon = system: SW-620 colon
TK-10 renal = system: TK-10 renal
A498 renal = system: A498 renal
SK-OV-3 ovarian = system: SK-OV-3 ovarian
NCI/ADR-RES ovarian = system: NCI/ADR-RES ovarian

| Structure (SMILES) | TGI (EKVX NSCLC) [µM] | TGI (HT29 colon) [µM] | TGI (IGROV1 ovarian) [µM] | TGI (RXF 393 renal) [µM] | TGI (SNB-75 CNS) [µM] | TGI (SW-620 colon) [µM] | TGI (TK-10 renal) [µM] | TGI (A498 renal) [µM] | TGI (SK-OV-3 ovarian) [µM] | GI50 (A498 renal) [µM] | GI50 (HT29 colon) [µM] | GI50 (IGROV1 ovarian) [µM] | GI50 (NCI/ADR-RES ovarian) [µM] | TGI (NCI/ADR-RES ovarian) [µM] | GI50 (RXF 393 renal) [µM] | GI50 (SK-OV-3 ovarian) [µM] | GI50 (SNB-75 CNS) [µM] | GI50 (SW-620 colon) [µM] | GI50 (TK-10 renal) [µM] | GI50 (EKVX NSCLC) [µM] |
| --- | --- | --- | --- | --- | --- | --- | --- | --- | --- | --- | --- | --- | --- | --- | --- | --- | --- | --- | --- | --- |
| O=C(CC1SC(=Nc2ccccc2Cl)NC1=O)Nc1ccc(Cl)cc1Cl (configuration not stated) | > 100 | > 100 | > 100 | > 100 | > 100 | > 100 | > 100 |  |  |  |  |  |  |  |  |  |  |  |  |  |
| CC1(c2ccccc2Cl)C(C#N)C(=O)NC(=O)C1C#N (configuration not stated) | > 100 | > 100 | > 100 | > 100 | 75.4 | > 100 | > 100 | > 100 | > 100 |  |  |  |  |  |  |  |  |  |  |  |
| O=S(=O)(/C=C/C(=C/c1ccccc1)S(=O)(=O)c1ccccc1)c1ccccc1 | 3.15 | 3.28 | 25 | 3.19 | 3.43 |  | 3.24 |  | 2.79 |  |  |  |  |  |  |  |  |  |  |  |
| O=c1[nH]cc(F)c(=O)n1C1OC(CO)C(O)C1O (configuration not stated) | > 100 | > 100 |  | > 100 | > 100 | > 100 | > 100 |  | > 100 |  |  |  |  |  |  |  |  |  |  |  |
| Cc1ccccc1NC(=O)C(=O)C(C#N)c1ccccc1C (configuration not stated) | > 100 | > 100 | > 100 | > 100 | > 100 | 36.5 | > 100 | > 100 | > 100 |  |  |  |  |  |  |  |  |  |  |  |
| Cn1cc(C2=C(c3cccc(OC[C@@H](O)CO)c3)C(=O)NC2=O)c2ccccc21 |  | > 25 | > 25 | > 25 | > 25 | > 25 | > 25 | > 5.77 | > 25 | 0.656 | > 25 | > 25 | > 25 | > 25 | 2.08 | > 18.3 | 0.0944 | > 20.1 | > 25 |  |
| N#Cc1ccc(C=NC23CC4CC(CC(C4)C2)C3)cc1 | > 100 | > 100 | > 100 | > 100 |  | > 100 | > 100 | > 100 | > 100 |  |  |  |  |  |  |  |  |  |  |  |
| N#CCCN1C/C(=C/c2ccc(Cl)cc2)C(=O)/C(=C/c2ccc(Cl)cc2)C1 |  | 0.574 | 3.95 | 2.61 | 6.8 | 1.15 | 4.86 | 3.11 | 5.4 | 1.59 | 0.238 | 1.75 | 3.4 | 52.2 | 1.22 | 2.23 | 2.19 | 0.338 | 2.08 |  |
| CCOC(=O)/C(C#N)=C(O)/C(=C\c1ccc(Br)cc1)NC(=O)c1ccccc1 | > 100 | > 100 | > 100 |  | > 100 | 51.7 | > 100 | > 100 | > 100 |  |  |  |  |  |  |  |  |  |  |  |
| CC(C)=CC(=O)N(C)C1C2CN3CCC(O2)C13 (configuration not stated) | > 100 | > 100 | > 100 | > 100 | > 100 | > 100 | > 100 | > 100 | > 100 |  |  |  |  |  |  |  |  |  |  |  |
| Cc1ccc(S(=O)(=O)N/N=C(/CC(=O)c2c(C)n([O-])c3ccccc3[n+]2=O)C(=O)Nc2ccccc2C)cc1 | > 100 | > 100 | > 100 | > 100 | > 100 | > 100 |  | > 100 | > 100 |  |  |  |  |  |  |  |  |  |  |  |
| CCCCCCCCCCCCC(Br)C(=O)NCC(N)=O (configuration not stated) | 42 | 36 | 29.8 | 8.52 | 11.6 | 52.9 | 34.7 | 26.7 | 59.2 |  |  |  |  |  |  |  |  |  |  |  |
| N#CC1=C(/N=C/c2ccccc2)Oc2c(ccc3ccccc23)C1c1ccccc1 (configuration not stated) | > 100 | > 100 | > 100 |  |  | > 100 | > 100 | 0.747 | > 100 | 0.191 | 0.37 | 0.725 | 0.285 | 1.05 |  | 0.534 |  | 0.405 | 13.7 | 5.13 |
| C=C1CCC2[C@@H](CCC3[C@]2(C)CCC[C@]3(C)C(=O)OC)C1CC=O (some centres not stated) | 36 | 30.8 | 38.6 |  |  | 35 | 26.6 | 31.9 | 37.7 | 17.2 |  |  |  |  |  | 21.4 |  |  | 13.2 |  |
| O=C(O)/C=C/c1nc2ccccc2c(=O)o1 | > 100 | > 100 | > 100 |  | > 100 | > 100 | > 100 |  | > 100 |  |  |  |  |  |  |  |  |  |  |  |
| C=CNC(=O)NC(=O)CSc1nnc(-c2ccccc2NC(=O)C(F)(F)F)c(=O)[nH]1 | > 100 | > 100 | > 100 | > 100 | 0.968 | > 100 | > 100 |  | > 100 |  |  |  |  |  |  |  |  |  |  |  |
| C[CH2][Sn]([CH2]C)([O]C(=O)c1ccccc1OC)[O][Sn]([CH2]C)([CH2]C)[O]C(=O)c1ccccc1OC | > 100 | > 100 | > 100 | > 100 | > 100 | > 100 | > 100 | > 100 | > 100 | 44.4 | > 100 | > 100 |  |  | 43.3 | > 100 | > 100 | 44.8 | > 100 | > 100 |
| CCN(CC)CCCCCCNc1cc(OC)cc2cccnc12 | 26.3 | 3.43 | 4.86 | 15.7 | 30.6 | 3.71 | 30.8 |  | 33 |  | 1.82 | 2.27 | 7.16 | 27.3 | 4.26 | 17.7 | 13.8 | 1.79 | 16.1 | 13.4 |
| O=C1Nc2ccccc2N=CC1NC(=O)C(c1ccccc1)c1ccccc1 (configuration not stated) | > 100 | > 100 | > 100 | > 100 | > 100 | > 100 | > 100 | > 100 | > 100 |  |  |  |  |  |  |  |  |  |  |  |
| Cc1cc(C)nc(NS(=O)(=O)c2ccc(Nc3c4ccccc4nc4c(C(=O)Nc5ccc(S(=O)(=O)N=C(N)N)cc5)cccc34)cc2)n1 | > 100 | > 100 | > 100 | 85.1 | 88.5 | > 100 | > 100 | > 100 | > 100 |  |  |  |  |  |  |  |  |  |  |  |
